{
  "source": "patent US20240139191A1",
  "about": "“SMALL MOLECULES AS LARP1 LIGANDS” (priority 2020, published 2024)",
  "target": "LARP1 DM15 region (Homo sapiens, UniProt Q6PKG0)",
  "experiment": "binding of LARP1 DM15 region to capped RNA motifs",
  "details": "relative to endogenous (human) m7GpppC motif; FIGS. 1B & C",
  "data": [
    {"smiles": "Cn1c[n+]([C@@H]2O[C@H](COP(=O)(O)OP(=O)(O)OP(=O)(O)OC[C@H]3O[C@@H](n4cnc5c(N)ncnc54)[C@H](O)[C@@H]3O)[C@@H](O)[C@H]2O)c2nc(N)[nH]c(=O)c21", "note": "[m^7GpppA]", "values": [
      {"measurement": "interaction with DM15 region compared with m7GpppC-initiated mRNA targets", "value": "even tighter interaction"}
    ]}
  ]
}
